Measurements as given in ChEMBL document CHEMBL5316331, “Modulating Cytotoxicity with Lego-like Chemistry: Upgrading Mitochondriotropic Antioxidants with Prototypical Cationic Carrier Bricks” (J Med Chem, 2023).
Calls of active or inactive are those of the source. The rule behind the calls is not given here.

Key:
[1] = Cytotoxicity against human SH-SY5Y cells assessed as cell viability incubated for 24 hrs; assay type: toxicity, cell-based; conditions: read-out: Activity
[2] = tested on: SH-SY5Y; assay: Neuroprotective activity against H2O2-induced human SH-SY5Y cells assessed as increase in cell viability at 10 uM preincubated for 30 mins followed by H2O2 addition and measured after 24 hrs by SRB assay; assay type: functional, cell-based; conditions: time 24.5 hrs
[3] = Cytotoxicity against human HepG2 cells assessed as cell viability incubated for 24 hrs; assay type: toxicity, cell-based; conditions: read-out: Activity
[4] = tested on: SH-SY5Y; assay: Cytotoxicity against human SH-SY5Y cells at > 10 uM incubated for 48 hrs; assay type: toxicity, cell-based
[5] = Drug uptake in C57BL/6J mouse liver mitochondria at 5 uM in presence of rotenone by UPLC analysis; assay type: ADME
[6] = tested on: SH-SY5Y; assay: Neuroprotective activity against H2O2-induced human SH-SY5Y cells assessed as increase in cell viability at 50 uM preincubated for 30 mins followed by H2O2 addition and measured after 24 hrs by SRB assay; assay type: functional, cell-based; conditions: time 24.5 hrs
[7] = tested on: SH-SY5Y; assay: Cytotoxicity against human SH-SY5Y cells assessed as increase in cell viability at 10 to 100 uM incubated for 24 hrs; assay type: toxicity, cell-based; conditions: dose 10-100 µM
[8] = tested on: HepG2; assay: Cytotoxicity against human HepG2 cells assessed as increase in cell viability at 10 to 100 uM incubated for 24 hrs; assay type: toxicity, cell-based; conditions: hepg2, 24 h, dose 10-100 µM
[9] = Drug uptake in C57BL/6J mouse liver mitochondria at 5 uM in presence of succinate by UPLC analysis; assay type: ADME
[10] = Drug uptake in C57BL/6J mouse liver mitochondria at 5 uM in presence of FCCP by UPLC analysis; assay type: ADME
[11] = tested on: SH-SY5Y; assay: Antioxidant activity against human SH-SY5Y cells assessed as effect on cellular OCR at 10 uM incubated for 24 hrs followed by addition of oligomycin/FCCP/antimycin A /rotenone by Cell Mito stress assay based seahorse XF96 flux analyzer; assay type: functional
[12] = tested on: SH-SY5Y; assay: Antioxidant activity against human SH-SY5Y cells assessed as effect on cellular OCR at 50 uM incubated for 24 hrs followed by addition of oligomycin/FCCP/antimycin A /rotenone by Cell Mito stress assay based seahorse XF96 flux analyzer; assay type: functional
[13] = tested on: SH-SY5Y; assay: Antioxidant activity against human SH-SY5Y cells assessed as effect on ATP production-linked respiration at 10 uM incubated for 24 hrs followed by addition of oligomycin/FCCP/antimycin A /rotenone by Cell Mito stress assay based seahorse XF96 flux analyzer; assay type: functional
[14] = tested on: SH-SY5Y; assay: Effect on cell death pathway in human SH-SY5Y cells assessed as increase in necrotic cells at 10 uM incubated for 24 hrs by Annexin V-FITC/PI staining based microscopy; assay type: functional
[15] = tested on: SH-SY5Y; assay: Effect on cell morphology in human SH-SY5Y cells assessed as reduction in cell body at 50 uM incubated for 24 hrs by Phase-contrast microscopy; assay type: functional, cell-based
[16] = tested on: SH-SY5Y; assay: Effect on cell morphology in human SH-SY5Y cells assessed as reduction in neurite at 10 uM incubated for 24 hrs by Phase-contrast microscopy; assay type: functional, cell-based
[17] = tested on: HepG2; assay: Cytotoxicity against human HepG2 cells assessed as decrease in lysosomal activity at > 10 uM incubated for 24 hrs by resazurin reduction assay; assay type: toxicity, cell-based; conditions: hepg2, 24 h
[18] = tested on: SH-SY5Y; assay: Cytotoxicity against human SH-SY5Y cells assessed as decrease in cell mass at > 25 uM incubated for 24 hrs by SRB assay; assay type: toxicity, cell-based
[19] = tested on: HepG2; assay: Cytotoxicity against human HepG2 cells assessed as decrease in cell mass at > 6.25 uM incubated for 24 hrs by SRB assay; assay type: toxicity, cell-based; conditions: hepg2, 24 h
[20] = tested on: SH-SY5Y; assay: Antioxidant activity against human SH-SY5Y cells assessed as increase in ECAR at 10 uM incubated for 24 hrs followed by addition of oligomycin/FCCP/antimycin A /rotenone by Cell Mito stress assay based seahorse XF96 flux analyzer; assay type: functional
[21] = tested on: SH-SY5Y; assay: Neuroprotective activity against tBHP-induced human SH-SY5Y cells assessed as increase in cell viability at 10 uM preincubated for 30 mins followed by t-BHP addition and measured after 24 hrs by SRB assay; assay type: functional, cell-based; conditions: time 24.5 hrs
[22] = tested on: SH-SY5Y; assay: Neuroprotective activity against tBHP-induced human SH-SY5Y cells assessed as increase in cell viability at 10 uM preincubated for 30 mins followed by t-BHP addition at 15 uM and measured after 24 hrs by neutral dye uptake assay relative to control; assay type: functional; conditions: time 24.5 hrs
[23] = tested on: SH-SY5Y; assay: Effect on cell death pathway in human SH-SY5Y cells assessed as increase in early apoptotic cells at 50 uM incubated for 24 hrs by Annexin V-FITC/PI staining based microscopy; assay type: functional
[24] = tested on: HepG2; assay: Cytotoxicity against human HepG2 cells assessed as decrease in lysosomal activity at > 3.1 uM incubated for 24 hrs by resazurin reduction assay; assay type: toxicity, cell-based; conditions: hepg2, 24 h
[25] = tested on: SH-SY5Y; assay: Effect on cell morphology in human SH-SY5Y cells assessed as reduction in neurite at 50 uM incubated for 24 hrs by Phase-contrast microscopy; assay type: functional, cell-based
[26] = tested on: SH-SY5Y; assay: Induction of mitochondrial membrane polarization in human SH-SY5Y cells at 50 uM incubated for 24 hrs by JC-1 staining based fluorescence assay; assay type: functional
[27] = tested on: HepG2; assay: Cytotoxicity against human HepG2 cells assessed as decrease in cellular metabolic activity at > 10 uM incubated for 24 hrs by resazurin reduction assay; assay type: toxicity, cell-based; conditions: hepg2, 24 h
[28] = tested on: SH-SY5Y; assay: Effect on cell death pathway in human SH-SY5Y cells assessed as increase in late apoptotic cells at 10 uM incubated for 24 hrs by Annexin V-FITC/PI staining based microscopy; assay type: functional
[29] = tested on: SH-SY5Y; assay: Cytotoxicity against human SH-SY5Y cells assessed as decrease in lysosomal activity at > 50 uM incubated for 24 hrs by neutral red uptake assay; assay type: toxicity, cell-based
[30] = tested on: SH-SY5Y; assay: Effect on cell death pathway in human SH-SY5Y cells assessed as increase in early apoptotic cells at 10 uM incubated for 24 hrs by Annexin V-FITC/PI staining based microscopy; assay type: functional
[31] = tested on: HepG2; assay: Cytotoxicity against human HepG2 cells assessed as decrease in cellular metabolic activity at > 3.1 uM incubated for 24 hrs by resazurin reduction assay; assay type: toxicity, cell-based; conditions: hepg2, 24 h
[32] = tested on: SH-SY5Y; assay: Effect on cell death pathway in human SH-SY5Y cells assessed as increase in late apoptotic cells at 50 uM incubated for 24 hrs by Annexin V-FITC/PI staining based microscopy; assay type: functional
[33] = tested on: SH-SY5Y; assay: Cytotoxicity against human SH-SY5Y cells assessed as decrease in lysosomal activity at > 25 uM incubated for 24 hrs by neutral red uptake assay; assay type: toxicity, cell-based
[34] = tested on: SH-SY5Y; assay: Cytotoxicity against human SH-SY5Y cells assessed as decrease in lysosomal activity at 1 to 100 uM incubated upto 48 hrs by resazurin reduction assay; assay type: toxicity, cell-based; conditions: dose 1-100 µM
[35] = tested on: SH-SY5Y; assay: Effect on cell mitochondrial mass in human SH-SY5Y cells assessed as reduction on mitochondrial mass at 10 uM incubated for 24 hrs by mito-tracker green dye based flow cytometry; assay type: functional; set-up: scale not given: the % may be the effect or the level left
[36] = tested on: SH-SY5Y; assay: Cytotoxicity against human SH-SY5Y cells assessed as decrease in cellular metabolic activity at 1 to 100 uM incubated upto 48 hrs by resazurin reduction assay; assay type: toxicity, cell-based; conditions: dose 1-100 µM
[37] = tested on: SH-SY5Y; assay: Induction of mitochondrial membrane polarization in human SH-SY5Y cells at 10 uM incubated for 24 hrs by JC-1 staining based fluorescence assay; assay type: functional
[38] = Dissociation constant, pKa of the compound by UV-vis spectrophotometric analysis; assay type: physicochemical
[39] = tested on: SH-SY5Y; assay: Antioxidant activity against human SH-SY5Y cells assessed as increase in proton leak-associated respiration at 10 uM incubated for 24 hrs followed by addition of oligomycin/FCCP/antimycin A /rotenone by Cell Mito stress assay based seahorse XF96 flux analyzer; assay type: functional
[40] = tested on: SH-SY5Y; assay: Neuroprotective activity against tBHP-induced human SH-SY5Y cells assessed as increase in cell viability at 10 uM preincubated for 30 mins followed by t-BHP addition at 30 uM and measured after 24 hrs by neutral dye uptake assay relative to control; assay type: functional; conditions: time 24.5 hrs
[41] = tested on: SH-SY5Y; assay: Effect on cell death pathway in human SH-SY5Y cells assessed as increase in necrotic cells at 50 uM incubated for 24 hrs by Annexin V-FITC/PI staining based microscopy; assay type: functional
[42] = tested on: SH-SY5Y; assay: Antioxidant activity against human SH-SY5Y cells assessed as effect on intracellular ATP level at 10 uM incubated for 24 hrs followed by addition of oligomycin/FCCP/antimycin A /rotenone by Cell Mito stress assay based seahorse XF96 flux analyzer; assay type: functional
[43] = tested on: SH-SY5Y; assay: Effect on cell morphology in human SH-SY5Y cells assessed as reduction in cell body at 10 uM incubated for 24 hrs by Phase-contrast microscopy; assay type: functional, cell-based

CS(=O)(=O)[O-].Cn1cc[n+](CCCCCCCCCCNC(=O)/C=C/c2ccc(O)c(O)c2)c1
viability at 24 h [1]: ≥ 85%
Activity [2]: inactive
viability at 24 h [3]: ≥ 85%
Activity [4]: Toxic
Drug uptake [5]: Not Active
Activity [6]: inactive
Activity [7]: Non-Toxic
Activity [8]: Non-Toxic
Drug uptake [9]: ~ 25%
Drug uptake [10]: Active
Activity [11]: inactive
Activity [12]: inactive

CS(=O)(=O)[O-].O=C(/C=C/c1ccc(O)c(O)c1)NCCCCCCCCCC[P+](c1ccccc1)(c1ccccc1)c1ccccc1
Activity [13]: inactive
Activity [14]: Active
Activity [15]: Active
Activity [16]: Active
Activity [17]: Toxic
Activity [2]: inactive
Activity [18]: Toxic
Activity [19]: Toxic
Activity [20]: Active
Activity [21]: Active
Activity [22]: 95.1%
Activity [23]: Active
Activity [24]: Toxic
Activity [25]: Active
Drug uptake [5]: Not Active
Activity [26]: 72.7%
Activity [27]: Toxic
Activity [28]: Active
Activity [29]: Toxic
Drug uptake [9]: ~ 25%
Activity [30]: Active
Activity [31]: Toxic
Activity [32]: Active
Activity [33]: Toxic
Activity [34]: Toxic
Activity [35]: 69.2%
Drug uptake [10]: Active
Activity [36]: Toxic
Activity [37]: 124.8%
pKa [38]: 8.61
Activity [39]: Active
Activity [40]: 54.9%
Activity [41]: Active
Activity [42]: inactive
Activity [43]: Active
